Experimental data as given in patent US4576625A, “Fertilizers containing urea with urease inhibitors” (Huls Aktiengesellschaft, priority 1983, dated 1986).
Where “and” joins values, the source holds several entries; their conditions need not be identical. Equal entries are not always repeated.

Tests used:
[1] = tested on: urease; assay type: biochemical
[2] = tested on: rye grass; experiment: Pot tests for rye grass, urea as soil fertilizer optionally with 2% urease inhibitors, compared with KAS (Table 7); assay type: in vivo; conditions: for N Absorption / Raw Protein % of Dry Subst / Dry Substance: 2% inhibitor where added; for Dry Substance: 5 cuttings
Method: (§1) The results of the tests in Mitscherlich pots are compiled in Tables 6 and 7.
In the experiments in Table 7 on rye grass, urea, with and without urease inhibitors, used as a soil fertilizer in application amounts between 0.5 and 1.0 g N/pot, was tested in comparison with KAS. As a product from the maleinimide group, Substance 64 from Table 1, i.e. N-methylmaleinimide was added; from the bromo-nitro compounds, Substance 1 of Table 2, bromo-2-nitropropyl-N-methylcarbamate was added. […] The yield of dry solids scarcely increases as the application of fertilizer increases from 0.75 to 1.0 g N both with urea fertilization alone as well as with the addition of a maleinimide compound.
(§2) The mixtures according to the invention used for the experiments of these tables were produced by powdering the urea prills with said bromo-nitro compounds; optionally, the prills can be sprayed before powdering with a hydrocarbon oil to improve adhesion. The bromo-nitro compounds soluble in liquid fertilizers containing urea pose no problems of distribution in dissolved fertilizers containing urea. In the case of slightly soluble bromo-nitro compounds, stirring must occur during the distribution. Optionally, solutizing agents can be added.

[3] = tested on: rye grass; experiment: Pot experiments with rye grass, urea as soil fertilizer with various urease inhibitors (Table 6); assay type: in vivo; conditions: urea four times 1.0 g N/pot; inhibitor 2% of the urea quantity; loamy sand pH 5.6
Excerpt: as §1
In Table 6 the various urease inhibitors as urea additives for soil fertilization are compared with one another. Both in overall crop yield as well as in N absorption and in raw protein content, the best results are achieved with bromo-nitro compounds. The maleic derivatives and the quinone product furnish poorer results.
as §2

[4] = tested on: spring wheat, sirocco type; experiment: Pot tests with spring wheat, urea or AUS as leaf fertilizer with urease inhibitor (Table 8); assay type: in vivo
Excerpt: (In the case of the test series with AUS and urea, equal quantities of N were used. The quantities of the urease inhibitors used were increased in the same way in both test series. If, however, the inhibitor material is related to the use of urea-N, this means that in the case of AUS double the quantity comes into play.)

[5] = Critical relative humidity (water activity) of fertilizer solutions; assay type: physicochemical; conditions: 50% urea solution as for 100% salts; between 10° and 30° C.
[6] = tested on: rats; conditions: oral ingestion by rats; cited from earlier work
[7] = AUS leaf fertilizer, inhibitor quantity 4 per 100 g urea-N
[8] = AUS leaf fertilizer, inhibitor quantity 8 per 100 g urea-N
[9] = urea solution leaf fertilizer, inhibitor quantity 2 per 100 g urea-N
[10] = urea solution leaf fertilizer, inhibitor quantity 4 per 100 g urea-N

CN1C(=O)C=CC1=O [Subst. 64-Tab. 1, N--Methylmaleinimide, reference compound]
urease inhibitor effect (in words) [1]: best inhibitor effects | N Absorption ([2]; N fertilization 0.5 g N/pot): 1285 mg/Pot | Raw Protein % of Dry Subst ([2]; N fertilization 0.5 g N/pot): 11.66% | N Absorption ([2]; N fertilization 0.75 g N/pot): 1676 mg/Pot | Raw Protein % of Dry Subst ([2]; N fertilization 0.75 g N/pot): 12.82% | N Absorption ([2]; N fertilization 1.0 g N/pot): 1944 mg/Pot | Raw Protein % of Dry Subst ([2]; N fertilization 1.0 g N/pot): 14.84%

O=C(Nc1ccccc1)OCN1C(=O)C=CC1=O [Subst. 68-Tab. 1, N--Methylolmaleinimide phenyl urethane]
Dry Substance 1st-5th Cutting [3]: 124.0 g/Pot | N-absorption [3]: 2.83 g/Pot | Raw Protein % in Dry Substance [3]: 14.3%

CCC(O)C(Br)[N+](=O)[O-] (centres unmarked) [Subst. 7-Tab. 3, 1-Bromo-1-nitro-butanol-2]
N losses of the soil through NH3 volatilization as % of the urea-N quantities used [1]: 8.3% and 0.0%

CCCC(O)C(Br)[N+](=O)[O-] (centres unmarked) [Subst. 6-Tab. 3, 1-Bromo-1-nitro-pentanol-2]
N losses of the soil through NH3 volatilization as % of the urea-N quantities used [1]: 6.5% and 0.0%

O=C1C2C3C=CC(C3)C2C(=O)N1SC(Cl)(Cl)Cl (centres unmarked) [Subst. 23-Tab. 2, reference compound]
urease inhibitor effect (in words) [1]: No outstanding inhibitor effect

CNC(=O)OCC(C)(Br)[N+](=O)[O-] (centres unmarked) [Subst. 1-Tab. 3, 2-Bromo-2-nitro-propyl-N--methylcarbamate]
N losses of the soil through NH3 volatilization as % of the urea-N quantities used [1]: 0.3% and 0.0% | N losses of the soil through NH3 volatilization calculated as % of the urea-N quantities used [1]: 0.0% and 1.2% and 0.1% | Dry Substance 1st-5th Cutting [3]: 131.7 g/Pot | N-absorption [3]: 3.29 g/Pot | Raw Protein % in Dry Substance [3]: 15.6% | N Absorption ([2]; N fertilization 0.5 g N/pot): 1432 mg/Pot | Raw Protein % of Dry Subst ([2]; N fertilization 0.5 g N/pot): 12.62% | Dry Substance ([2]; N fertilization 0.5 g N/pot): 70.9 g/Pot | N Absorption ([2]; N fertilization 0.75 g N/pot): 2095 mg/Pot | Raw Protein % of Dry Subst ([2]; N fertilization 0.75 g N/pot): 16.43% | Dry Substance ([2]; N fertilization 0.75 g N/pot): 79.7 g/Pot | N Absorption ([2]; N fertilization 1.0 g N/pot): 2720 mg/Pot | Raw Protein % of Dry Subst ([2]; N fertilization 1.0 g N/pot): 19.68% | Dry Substance ([2]; N fertilization 1.0 g N/pot): 86.4 g/Pot | comparison of fertilizer combinations (in words) ([2]; urea + 2% inhibitor): superior to the corresponding mixture with 2% of a maleinimide compound | Dry Substance [4, 7]: 68.68 g/pot | N Absorption [4, 7]: 1058 mg/pot | Raw Protein [4, 7]: 9.63% | Dry Substance [4, 8]: 68.69 g/pot | N Absorption [4, 8]: 1051 mg/pot | Raw Protein [4, 8]: 9.56% | Dry Substance [4, 9]: 65.11 g/pot | N Absorption [4, 9]: 951 mg/pot | Raw Protein [4, 9]: 9.13% | Dry Substance [4, 10]: 68.36 g/pot | N Absorption [4, 10]: 1046 mg/pot | Raw Protein [4, 10]: 9.56%

CCN1C(=O)C=CC1=O [Subst. 56-Tab. 1, N--Ethylmaleinimide, reference compound]
urease inhibitor effect (in words) [1]: best inhibitor effects

CC(Br)(CO)[N+](=O)[O-] (centres unmarked) [Subst. 4-Tab. 3, 2-Bromo-2-nitro-propanol]
N losses of the soil through NH3 volatilization as % of the urea-N quantities used [1]: 2.1% and 0.0% | Dry Substance 1st-5th Cutting [3]: 127.8 g/Pot | N-absorption [3]: 3.09 g/Pot | Raw Protein % in Dry Substance [3]: 15.1%

NC(N)=O [urea]
CRH value (critical relative humidity) [5]: 75-76%

CC(O)C(Br)[N+](=O)[O-] (centres unmarked) [Subst. 11-Tab. 3, 1-Bromo-1-nitro-propanol-2]
N losses of the soil through NH3 volatilization as % of the urea-N quantities used [1]: 2.3%

CC(C)(C)C(O)C(Br)[N+](=O)[O-] (centres unmarked) [Subst. 5-Tab. 3, 1-Bromo-1-nitro-3,3.dimethyl-butane-2-ol]
N losses of the soil through NH3 volatilization as % of the urea-N quantities used [1]: 4.7% and 0.0%

CCC(Br)(COC(=O)NC)[N+](=O)[O-] (centres unmarked) [Subst. 2-Tab. 3, 2-Bromo-2-nitro-butyl-N--methylcarbamate]
N losses of the soil through NH3 volatilization as % of the urea-N quantities used [1]: 0.5% and 0.0%

O=C1C=CC(=O)N1CO [Subst. 66-Tab. 1, N--Methylolmaleinimide]
urease inhibitor effect (in words) [1]: best inhibitor effects | Dry Substance 1st-5th Cutting [3]: 125.0 g/Pot | N-absorption [3]: 2.85 g/Pot | Raw Protein % in Dry Substance [3]: 14.3%

O=[N+]([O-])C(Br)(CO)CO [Subst. 3-Tab. 3, 2-Bromo-2-nitro-propan-1,3-diol]
N losses of the soil through NH3 volatilization as % of the urea-N quantities used [1]: 0.9% and 0.0% | N losses of the soil through NH3 volatilization calculated as % of the urea-N quantities used [1]: 0.0% and 0.5% | Dry Substance 1st-5th Cutting [3]: 128.6 g/Pot | N-absorption [3]: 3.15 g/Pot | Raw Protein % in Dry Substance [3]: 15.3% | LD50 [6]: 400 mg/kg

CC(=O)OCN1C(=O)C=CC1=O [Subst. 48-Tab. 1, N--Acetoximethylmaleinimide]
urease inhibitor effect (in words) [1]: best inhibitor effects | Dry Substance 1st-5th Cutting [3]: 129.7 g/Pot | N-absorption [3]: 2.85 g/Pot | Raw Protein % in Dry Substance [3]: 13.7%

O=C1C=CC(=O)C=C1 [Subst. 31-Tab. 1, 1,4-Benzoquinone]
Dry Substance 1st-5th Cutting [3]: 118.3 g/Pot | N-absorption [3]: 2.54 g/Pot | Raw Protein % in Dry Substance [3]: 13.4%

CC(C)C(O)C(Br)[N+](=O)[O-] (centres unmarked) [Subst. 8-Tab. 3, 1-Bromo-1-nitro-3-methyl-butane-2-ol]
N losses of the soil through NH3 volatilization as % of the urea-N quantities used [1]: 10.0% and 0.1%

O=C1C=CC(=O)N1 [Subst. 61-Tab. 1, Maleinimide, reference compound]
urease inhibitor effect (in words) [1]: best inhibitor effects
